Experimental data as given in patent US8580959B2, “Azolotriazinone melanin concentrating hormone receptor-1 antagonists” (Bristol-Myers Squibb Company, priority 2008, dated 2013).
pKi: −log10 of the molar value. Where a name gives a salt, the structure may show the parent alone.

Legend:
[1] = system: Male SPRAGUE DAWLEY rats; test: Assessment of in vivo MCHR activity (body weight, rats with choice of chow and high fat high sugar diet); parameters: species or system rat; details: dose 30 mg/kg p.o. daily day 0 through day 4, rats; parent dosed as its prodrug example (22, 63, 50)
Description: Assessment of In Vivo MCHR Activity
Male SPRAGUE DAWLEY® (CD, Charles River Breeding Laboratory) rats weighing approximately 240 grams were place in individual plastic cages with ALPHADRI® bedding. The room was maintained at 72° F. and 50% humidity, and a 12/12 light dark cycle with lights out at 1600 hours. The rats were conditioned for 5 days prior to the start of the study to having a choice of foods. A normal chow (HARLAN TEKLAD®, 2018) that contains 18% protein, 5% fat and 73% carbohydrate and a high fat high sugar diet (Research Diets (D2327)) that contains 20% protein, 40% fat and 40% carbohydrate where the carbohydrate is entirely sucrose and the fat is soybean and coconut oil. […] Body weight and consumption of both kinds of food as well as water intake were measured daily. Water was available ad lib throughout the study. Food consumption is presented as daily caloric consumption which is the sum of grams of chow multiplied by the Kcal per gram (3.5) plus grams of high fat high sugar multiplied by Kcal per gram (4.59).
Baseline body weight was measured prior to drug treatment on day 0 of the study. Baseline food consumption was the average of the 3 days prior to the first drug treatment. Drug was administered daily p.o. at 2.0 ml/kg at 1500 hours beginning on day 0 and continuing daily through day 4 as a suspension in 0.5% methyl cellulose, 0.1% Tween 80 in water at 3.0, 10 and 30 mg/kg p.o. All data were evaluated using ANOVA and Fishers PLSD statistics.

[2] = molecular target: MCHR1 Rat (Rattus norvegicus, UniProt P97639); test: MCHR1 rat binding (radioligand binding assay)
[3] = molecular target: T1, mutated (E4Q, A5T) hMCHR1 receptor (Homo sapiens, UniProt Q99705, A5T/E4Q); test: Radioligand binding assay for assessment of MCHR1 activity (human); details: membranes of HEK-293 cells, [Phe13,[125I]Tyr19]-MCH competition
T1 construct: expressed in transfected cells; host or cells: HEK-293 (stably transfected), membranes
Description: Radioligand Binding Assay for Assessment of MCHR1 Activity
Membranes from stably transfected HEK-293 cells expressing a mutated (E4Q, A5T) hMCHR1 receptor were prepared by dounce homogenization and differential centrifugation. Binding experiments were carried out with 0.5-1.0 ug of membrane protein incubated in a total of 0.2 ml in 25 mM HEPES (pH 7.4) with 10 mM MgCl2, 2 mM EGTA, and 0.1% BSA (Binding Buffer) for 90 min. […] Filters were dried, 0.05 ml microscint 20 was added to each well and radioactivity was subsequently quantified by scintillation counting on a TOPCOUNT® microplate scintillation counter (Packard). Inhibitory constants were determined by nonlinear least squares analysis using a four parameter logistic equation.

MCHR1 Rat, sequence (P97639 whole entry): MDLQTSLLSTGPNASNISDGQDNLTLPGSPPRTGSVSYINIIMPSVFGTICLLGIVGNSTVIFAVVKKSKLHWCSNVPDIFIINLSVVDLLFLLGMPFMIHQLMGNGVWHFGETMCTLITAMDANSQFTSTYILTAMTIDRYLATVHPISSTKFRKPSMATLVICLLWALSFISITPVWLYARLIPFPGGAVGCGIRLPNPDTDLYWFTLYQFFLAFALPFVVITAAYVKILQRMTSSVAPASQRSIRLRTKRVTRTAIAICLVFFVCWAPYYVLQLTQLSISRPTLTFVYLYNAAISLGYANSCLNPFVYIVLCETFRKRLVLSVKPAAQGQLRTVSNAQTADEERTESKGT
T1 sequence (Q99705 whole entry E4Q/A5T): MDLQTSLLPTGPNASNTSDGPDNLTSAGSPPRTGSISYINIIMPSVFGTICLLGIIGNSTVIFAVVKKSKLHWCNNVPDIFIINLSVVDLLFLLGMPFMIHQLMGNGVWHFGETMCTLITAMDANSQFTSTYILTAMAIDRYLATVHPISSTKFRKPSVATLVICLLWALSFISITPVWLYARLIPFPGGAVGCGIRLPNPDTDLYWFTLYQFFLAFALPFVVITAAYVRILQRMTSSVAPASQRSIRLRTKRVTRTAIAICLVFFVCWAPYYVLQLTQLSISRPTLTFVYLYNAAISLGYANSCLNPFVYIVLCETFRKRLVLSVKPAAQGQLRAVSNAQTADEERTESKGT

6-(4-Chlorophenyl)-3-(4-(2-hydroxy-2-methylpropoxy)-3-methoxyphenyl)pyrrolo[1,2-f][1,2,4]triazin-4(3H)-one [Example 1]
% Weight Reduction versus Vehicle [1]: 6.9%

COc1cc(-n2cnn3cc(-c4ccc(Cl)cc4)cc3c2=O)ccc1OCC(C)(C)O [Example 1, 6-(4-Chlorophenyl)-3-(4-(2-hydroxy-2-methylpropoxy)-3-methoxyphenyl)pyrrolo[1,2-f][1,2,4]triazin-4(3H)-one]
pKi [2]: 8.56
pKi [3]: 8.35

COc1ccc(-n2cnn3cc(-c4ccc(Cl)cc4)cc3c2=O)cc1OC [Example 2, 6-(4-Chlorophenyl)-3-(3,4-dimethoxyphenyl)pyrrolo[1,2-f][1,2,4]triazin-4(3H)-one]
pKi [2]: 8.08
pKi [3]: 7.67

COc1cc(-n2cnn3cc(-c4ccc(Cl)cc4)cc3c2=O)ccc1OCC(O)C1CC1 (centres unmarked) [Example 3, 6-(4-Chlorophenyl)-3-(4-(2-cyclopropyl-2-hydroxyethoxy)-3-methoxyphenyl)pyrrolo[1,2-f][1,2,4]triazin-4(3H)-one]
pKi [2]: 8.55
pKi [3]: 8.35

COc1cc(-n2cnn3cc(-c4ccc(Cl)cc4)cc3c2=O)ccc1OCCN1CCCC1 [Example 4, 6-(4-Chlorophenyl)-3-(3-methoxy-4-(2-(pyrrolidin-1-yl)ethoxy)phenyl)pyrrolo[1,2-f][1,2,4]triazin-4(3H)-one]
pKi [2]: 9.15
pKi [3]: 9.28

COc1cc(-n2cnn3nc(-c4ccc(Cl)cc4)cc3c2=O)ccc1OCCN1CCC(O)C1 (centres unmarked) [Example 6, 6-(4-Chlorophenyl)-3-(4-(2-(3-hydroxypyrrolidin-1-yl)ethoxy)-3-methoxyphenyl)pyrazolo[1,5-f][1,2,4]triazin-4(3H)-one]
pKi [2]: 9.10
pKi [3]: 8.66

COc1cc(-n2cnn3cc(-c4ccc(Cl)cc4)cc3c2=O)ccc1OCC(C)N1CCCC1 (centres unmarked) [Example 13, 6-(4-Chlorophenyl)-3-[3-methoxy-4-(2-pyrrolidin-1-yl-propoxy)-phenyl]-3H-pyrrolo[2,1-f] [1,2,4]triazin-4-one]
pKi [3]: 9.77

O=c1c2cc(-c3ccc(Cl)cc3)cn2ncn1-c1ccc(N2CCC(O)CC2)nc1 [Example 18, 6-(4-Chlorophenyl)-3-(6-(4-hydroxypiperidin-1-yl)pyridin-3-yl)pyrrolo[1,2-f][1,2,4]triazin-4(3H)-one]
pKi [3]: 7.94

O=c1c2cc(-c3ccc(Cl)cn3)cn2ncn1-c1ccc(N2CC[C@@H](O)C2)nc1 [Example 31, 6-(5-Chloropyridin-2-yl)-3-[6-(3-hydroxy-pyrrolidin-1-yl)-pyridin-3-yl]-3H-pyrrolo[2,1-f][1,2,4]triazin-4-one]
pKi [3]: 6.91

COc1cc(-n2cnn3cc(-c4ccc(Cl)cn4)cc3c2=O)ccc1OCC(C)(C)O [Example 33, 6-(5-Chloropyridin-2-yl)-3-[4-(2-hydroxy-2-methyl-propoxy)-3-methoxy-phenyl]-3H-pyrrolo[2,1-f][1,2,4]triazin-4-one]
% Weight Reduction versus Vehicle [1]: 11.2%

COc1ccc(-n2cnn3cc(-c4ccc(Cl)cc4)nc3c2=O)cc1OC [Example 38, 6-(4-Chlorophenyl)-3-(3,4-dimethoxy-phenyl)-3H-imidazo[2,1-f][1,2,4]triazin-4-one]
pKi [3]: 7.12

COc1cc(-n2cnn3cc(-c4ccc(Cl)cn4)cc3c2=O)ccc1OCC1(O)CC(F)(F)C1 [Example 46, 6-(5-Chloropyridin-2-yl)-3-(4-((3,3-difluoro-1-hydroxycyclobutyl)methoxy)-3-methoxyphenyl)pyrrolo[1,2-f][1,2,4]triazin-4(3H)-one-4(3H)-one]
% Weight Reduction versus Vehicle [1]: 2.6%

COc1cc(-n2cnn3cc(-c4ccc(Cl)cc4)cc3c2=O)ccc1N1C[C@H](OC(=O)[C@@H](N)C(C)C)[C@H](OC(=O)[C@@H](N)C(C)C)C1 [Example 56, (2S,2′S)-((3S,4R)-1-(4-(6-(4-Chlorophenyl)-4-oxopyrrolo[1,2-f][1,2,4]triazin-3(4H)-yl)-2-methoxyphenyl)pyrrolidine-3,4-diyl)bis(2-amino-3-methylbutanoate), 2TFA]
pKi [3]: 8.03

COc1cc(-n2cnn3cc(-c4ncc(Cl)cn4)cc3c2=O)ccc1OCC1(O)CC(F)(F)C1 [Example 57, 6-(5-Chloropyrimidin-2-yl)-3-(4-((3,3-difluoro-1-hydroxycyclobutyl)methoxy)-3-methoxyphenyl)pyrrolo[1,2-f][1,2,4]triazin-4(3H)-one]
pKi [3]: 8.05

CCS(=O)(=O)C[C@H](COc1ccc(-n2cnn3cc(-c4ncc(Cl)cn4)cc3c2=O)cc1OC)OC(=O)CN [Example 61, (S)-1-(4-(6-(5-Chloropyrimidin-2-yl)-4-oxopyrrolo[1,2-f][1,2,4]triazin-3(4H)-yl)-2-methoxyphenoxy)-3-(ethylsulfonyl)propan-2-yl 2-aminoacetate, TFA]
pKi [3]: 6.90
